Measured values: patent EP1191024A1, “Thiadiazines and their use as inhibitors of metalloproteinases” (Tschesche, Harald, priority 2000, dated 2002)
Counter-ions that a name gives are not always drawn. Like-named read-outs stand apart in the source and are kept apart here.

Key:
cdMMP-8 = molecular target: T1, cdMMP-8 (Homo sapiens, UniProt P22894); assay: MMP microfluorometric profiling assay (fluorogenic Mca-peptide substrate); assay type: biochemical
T1 construct: recombinant catalytic domain of human neutrophile Collagenase (cdMMP-8^Met80); made in house; host or cells: E. coli
T1 sequence (P22894 100-262 limits assumed): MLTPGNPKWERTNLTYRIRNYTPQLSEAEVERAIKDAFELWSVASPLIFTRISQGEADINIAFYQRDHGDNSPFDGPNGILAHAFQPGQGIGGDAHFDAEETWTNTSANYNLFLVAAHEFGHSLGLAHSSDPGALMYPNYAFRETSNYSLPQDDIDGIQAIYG
Procedure: (§1) The tested MMP enzymes were prepared more specifically in the laboratories of the applicants, with the exception of MMP-1. MMP-1 from human rheumatoid synovial fibroblasts was purchased from Calbiochem-Novabiochem Corporation, LaJolla. Preparation of the recombinant catalytic domain of human Gelatinase A (cdMMP-2): The catalytic domain of Pro-Gelatinase A was prepared using an E. coli expression system according to the method described by Kröger et al^[19]. The proenzyme was activated with 0.5 mM APMA at 37°C prior to use in the assay. […] Preparation of PMNL-Gelatinase (MMP-9): Latent PMNL-pro-Gelatinase was prepared from human plasma buffy coat as described by Tschesche et al^[21]. PMNL-pro-Gelatinase was activated prior to use by incubation with Trypsin at 37°C for 10 min. Inactivation of Trypsin was accomplished with TKI. […] The overexpressed protein was isolated as inclusion bodies and the renatured protein was purified by affinity chromatography with a hydroxamate inhibitor coupled column as described^[22]. Preparation of the recombinant catalytic domain of human Collagenase-3 (cdMMP-13): Human pro-cdMMP-13 was prepared using an E. coli expression system according to the method described^[23]. The isolated pro-cdMMP-13 was activated prior to use by incubation with 5 mM HgCl2 for 2 h at 37°C.
The enzymatic activity was measured using a modified version of a resonance energy transfer fluorogenic assay as described^[26]. […] The fluorescent MCA-group is quenched by resonance energy transfer to the 2,4-dinitrophenyl group. Matrix metalloproteinases cleave this substrate at the Gly-Leu bond. Cleavage results in the loss of energy transfer and a large increase in fluorescence of the MCA group. This substrate is commercially available from Bachem, Switzerland.
Enzyme inhibition assays were carried out in MRB which consisted of 50 mM HEPES/NaOH, pH 7.0, 10 mM CaCl2 and 0,02% (w/v) PEG 8000 at 25°C. MMP microfluorometric profiling assay was done in white U-bottomed 96-well plates (Microfluor 1 White, Dynex, USA) with a final substrate concentration of 6 µM MCA-peptide, approximately 0.3 to 5 nM MMP with variable inhibitor concentrations and 2% DMSO vehicle. From a 1.5 mM stock (100% DMSO) the inhibitors were serially diluted with MRB to 15, 10, 5, 3, 1, 0.6, 0.3, 0.1, 0.05, 0.01 and 0.005 µM final assay concentration. Column 1, rows A through H, contained only DMSO for the "enzyme-only" wells in the assay. […] Each measurement was done in triplicate to ensure statistically significant results. The experiment was further controlled for background fluorescence of the substrate, for fluorescence of fully cleaved substrate and for fluorescence quenching or augmentation from solutions containing the test compounds.
(§2) Datapoints from eight different MMPs generated on the SpectraFluor Plus were directly visualized on a master Excel spreadsheet. The response of inhibition was determinated for each inhibitor concentration by comparing the amount of hydrolysis (fluorescence units generated over 30 minutes of hydrolysis) of wells containing compound with the "enzyme-only" wells in column 1. With the program GraFit (Erithacus Software Limited) a 4 parameter logistic fit to the dose-response data was used to calculate IC50 values for each compound.

cdMMP-2 = cdMMP-2 (Homo sapiens, UniProt P08253); assay: as above; assay type: biochemical; conditions: for percent inhibition: cdMMP-2, @ 15 (µM)
Sequence of cdMMP-2 (P08253 110-446): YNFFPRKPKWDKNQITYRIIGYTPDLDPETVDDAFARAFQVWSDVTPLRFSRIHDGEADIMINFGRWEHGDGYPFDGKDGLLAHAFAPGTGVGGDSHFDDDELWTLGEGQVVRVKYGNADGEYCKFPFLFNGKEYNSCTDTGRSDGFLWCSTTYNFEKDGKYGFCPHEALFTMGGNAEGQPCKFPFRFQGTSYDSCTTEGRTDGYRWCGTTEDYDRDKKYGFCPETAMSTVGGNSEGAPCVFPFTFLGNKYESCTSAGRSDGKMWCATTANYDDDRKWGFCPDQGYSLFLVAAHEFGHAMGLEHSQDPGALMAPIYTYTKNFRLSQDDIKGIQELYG
Procedure: as §1
The enzymatic activity was measured using a modified version of a resonance energy transfer fluorogenic assay as described^[26]. Progress curves were monitored by following the increase in fluorescence at 393 nm (λex = 328 nm), induced by the cleavage of the (7-methoxycoumarin-4-yl)acetyl-Pro-Leu-Gly-Leu-(3-[2,4-dinitro-phenyl]-L-2,3-diamino-propionyl)-Ala-Arg-NH2 (Mca-Pro-Leu-Gly-Leu-Dpa-Ala-Arg-NH2) fluorogenic substrate by MMPs. The fluorescent MCA-group is quenched by resonance energy transfer to the 2,4-dinitrophenyl group. Matrix metalloproteinases cleave this substrate at the Gly-Leu bond. Cleavage results in the loss of energy transfer and a large increase in fluorescence of the MCA group. This substrate is commercially available from Bachem, Switzerland.
Enzyme inhibition assays were carried out in MRB which consisted of 50 mM HEPES/NaOH, pH 7.0, 10 mM CaCl2 and 0,02% (w/v) PEG 8000 at 25°C. MMP microfluorometric profiling assay was done in white U-bottomed 96-well plates (Microfluor 1 White, Dynex, USA) with a final substrate concentration of 6 µM MCA-peptide, approximately 0.3 to 5 nM MMP with variable inhibitor concentrations and 2% DMSO vehicle. From a 1.5 mM stock (100% DMSO) the inhibitors were serially diluted with MRB to 15, 10, 5, 3, 1, 0.6, 0.3, 0.1, 0.05, 0.01 and 0.005 µM final assay concentration. Column 1, rows A through H, contained only DMSO for the "enzyme-only" wells in the assay. After preincubation for 30 min at 25°C the reaction was started by addition of substrate and the plate was read on a SpectraFluor Plus (Tecan, Germany) plate reader with excitation at 330 nm and emission at 405 nm with the gain set to 150. Each measurement was done in triplicate to ensure statistically significant results. The experiment was further controlled for background fluorescence of the substrate, for fluorescence of fully cleaved substrate and for fluorescence quenching or augmentation from solutions containing the test compounds.
as §2

IC50 (cdMMP-8; read-out: cdMMP-8 IC50) | IC50 (cdMMP-2; read-out: cdMMP-2 IC50) | Structure (SMILES) | also measured
1580 nM | 1460 nM | CC(C)[C@H](NS(=O)(=O)c1ccccc1)C(=O)NC1=NN=C(c2ccc(Cl)cc2)CS1 [Example 22, (2S)-N-[5-(4-Chlorophenyl)-6H-1,3,4-thiadiazin-2-yl]-3-methyl-2-[(phenylsulfonyl)amino]butanamide] | 
377 nM | 354 nM | C[C@H](NS(=O)(=O)c1cccnc1)C(=O)NC1=NN=C(c2ccc(Cl)cc2)CS1 [Example 29, (2S)-N-[5-(4-Chlorophenyl)-6H-1,3,4-thiadiazin-2-yl]-2-[(3-pyridylsulfonyl)-amino]propanamide] | 
578 nM | 864 nM | O=C(CC1NC(=O)NC1=O)NC1=NN=C(c2ccc(Br)cc2)CS1 (stereo not drawn) [Example 24, N-[5-(4-Bromophenyl)-6H-1,3,4-thiadiazin-2-yl]-2-(2,5-dioxo-4-imidazolidinyl)-acetamide] | 
527 nM | 3930 nM | COc1ccc(S(=O)(=O)NCC(=O)NC2=NN=C(c3c(F)c(F)c(F)c(F)c3F)CS2)cc1 [Example 16, 2-{[(4-Methoxyphenyl)sulfonyl]amino}-N-[5-(2,3,4,5,6-pentafluorophenyl)-6H-1,3,4-thiadiazin-2-yl]acetamide] | 
492 nM | 2430 nM | CC(C)(C)c1ccc(S(=O)(=O)NCC(=O)NC2=NN=C(c3ccc(Cl)cc3Cl)CS2)cc1 [Example 18, 2-{[(4-tert-Butylphenyl)sulfonyl]amino}-N-[5-(2,4-dichlorophenyl)-6H-1,3,4-thiadiazin-2-yl]acetamide] | 
1170 nM | 890 nM | O=C(CC1NC(=O)NC1=O)NC1=NN=C(c2ccc(N3CCCC3)cc2)CS1 (stereo not drawn) [Example 26, 2-(2,5-Dioxo-4-imidazolidinyl)-N-{5-[4-(1-pyrrolidinyl)phenyl]-6H-1,3,4-thiadiazin-2-yl}acetamide] | 
468 nM | 353 nM | C[C@@H](NS(=O)(=O)c1ccccc1)C(=O)NC1=NN=C(c2ccc(C#N)cc2)CS1 [Example 1, (2R)-N-[5-(4-Cyanophenyl)-6H-1,3,4-thiadiazine-2-yl]-2-[(phenylsulfonyl)amino]-propanamide] | 
440 nM | 390 nM | C[C@H](NS(=O)(=O)c1ccccc1)C(=O)NC1=NN=C(c2ccc(C#N)cc2)CS1 [Example 3, (2S)-N-[5-(4-Cyanophenyl)-6H-1,3,4-thiadiazin-2-yl]-2-[(phenylsulfonyl)amino]-propanamide] | 
8630 nM | 1410 nM | CC(C)[C@@H](NS(=O)(=O)c1ccccc1)C(=O)NC1=NN=C(c2ccc(Cl)cc2)CS1 [Example 2, (2R)-N-[5-(4-Chlorophenyl)-6H-1,3,4-thiadiazin-2-yl]-3-methyl-2-[(phenylsulfonyl)amino]butanamide] | 
354 nM |  | COc1ccc(C2=NN=C(NC(=O)[C@H](C)NS(=O)(=O)c3ccccc3)SC2)cc1 [Example 12, (2S)-N-[5-(4-Methoxyphenyl)-6H-1,3,4-thiadiazin-2-yl]-2-[(phenylsulfonyl)-amino]propanamide] | 
648 nM |  | O=C(CC1NC(=O)NC1=O)NC1=NN=C(c2ccc(Cl)cc2)CS1 (stereo not drawn) [Example 23, N-[5-(4-Chlorophenyl)-6H-1,3,4-thiadiazin-2-yl]-2-(2,5-dioxo-4-imidazolidinyl)-acetamide] | percent inhibition (cdMMP-2): 67%^a)@ 15
 | 572 nM | C[C@@H](NS(=O)(=O)c1ccccc1)C(=O)NC1=NN=C(c2ccc(F)cc2)CS1 [Example 14, (2R)-N-[5-(4-Fluorophenyl)-6H-1,3,4-thiadiazin-2-yl]-2-[(phenylsulfonyl)amino]-propanamide] | 
 |  | C[C@H](NS(=O)(=O)c1ccccc1)C(=O)NC1=NN=C(c2ccc(C(F)(F)F)cc2)CS1 [Example 4, (2S)-2-[(Phenylsulfonyl)amino]-N-{5-[4-(trifluormethyl)phenyl]-6H-1,3,4-thiadiazin-2-yl}propanamide] | IC50 (cdMMP-8): 515 nM; percent inhibition (cdMMP-2): 25%^a)@ 15
 |  | C[C@H](NS(=O)(=O)N1CCOCC1)C(=O)NC1=NN=C(c2ccc(Cl)cc2)CS1 [Example 28, (2S)-N-[5-(4-Chlorophenyl)-6H-1,3,4-thiadiazin-2yl-]-2-[(4-morpholinylsulfonyl)amino]propanamide] | IC50 (cdMMP-8): 296 nM; IC50 (cdMMP-2): 662 nM
306 nM | 1520 nM | COc1ccc(S(=O)(=O)NCC(=O)NC2=NN=C(c3ccc(Cl)cc3Cl)CS2)cc1 [Example 19, N-[5-(2,4-Dichlorophenyl)-6H-1,3,4-thiadiazin-2-yl]-2-{[(4-methoxyphenyl)-sulfonyl]amino}acetamide] | 
231 nM | 455 nM | C[C@H](NS(=O)(=O)c1ccccc1)C(=O)NC1=NN=C(c2ccc(Br)cc2)CS1 [Example 6, (2S)-N-[5-(4-Bromophenyl)-6H-1,3,4-thiadiazin-2-yl]-2-[(phenylsulfonyl)amino]-propanamide] | 
337 nM | 495 nM | C[C@H](NS(=O)(=O)c1ccccc1)C(=O)NC1=NN=C(c2ccc([N+](=O)[O-])cc2)CS1 [Example 9, (2S)-N-[5-(4-Nitrophenyl)-6H-1,3,4-thiadiazin-2-yl]-2-[(phenylsulfonyl)amino]-propanamide] | 
599 nM | 675 nM | COc1ccc(S(=O)(=O)N[C@@H](C)C(=O)NC2=NN=C(c3ccc(C)cc3)CS2)cc1 [Example 17, (2S)-2-{[(4-Methoxyphenyl)sulfonyl]amino}-N-[5-(4-methylphenyl)-6H-1,3,4-thiadiazin-2-yl]propanamide] | 
692 nM | 693 nM | O=C1C[C@@H](C(=O)NC2=NN=C(c3ccc(Cl)cc3)CS2)NC(=O)N1 [Example 30, (4S)-N-[5-(4-Chlorophenyl)-6H-1,3,4-thiadiazin-2-yl]-2,6-dioxohexahydro-4-pyrimidinecarboxamide] | 
 |  | O=C(CC1NC(=O)NC1=O)NC1=NN=C(c2ccc(C3CCCCC3)cc2)CS1 (stereo not drawn) [Example 25, N-[5-(4-Cyclohexylphenyl)-6H-1,3,4-thiadiazin-2-yl]-2-(2,5-dioxo-4-imidazolidinyl)acetamide] | percent inhibition (cdMMP-8; cdMMP-8, @ 15 (µM)): 56%^a)@ 15; percent inhibition (cdMMP-2): 53%^a)@ 15
371 nM | 3100 nM | C[C@H](NS(=O)(=O)c1ccccc1)C(=O)NC1=NN=C(c2ccc(Cl)s2)CS1 [Example 10, (2S)-N-[5-(5-Chloro-2-thienyl)-6H-1,3,4-thiadiazin-2-yl]-2-[(phenylsulfonyl)-amino]propanamide] | 

Structure (SMILES) | IC50 (cdMMP-8; read-out: cdMMP-8 IC50) | IC50 (cdMMP-2; read-out: cdMMP-2 IC50) | also measured
C=CCNC1=NN=C(c2ccc(Cl)cc2)CS1 [Example 31, N-Allyl-5-(4-chlorophenyl)-6H-1,3,4-thiadiazin-2-amine hydrobromide] | 51900 nM |  | IC50 (cdMMP-2): 3310 nM
